Laboratory results from patent publication US10456477B2, “Oligolactic acid conjugates and micelles with enhanced anticancer efficacy” (Wisconsin Alumni Research Foundation, priority 2016, dated 2019).
≈ marks a conversion by molar mass, not a printed value. Where “and” joins values, the source holds several entries; their conditions need not be identical. Equal values may be shown once. Read-outs that look alike come from different tables or passages of the source.

How the values were obtained:
[1] = Drug loading efficiency, drug loading content and aqueous solubility of PEG-b-PLA micelles by RP-HPLC; type: physicochemical
Method: The polymeric film was dissolved by addition of sterile water or PBS (10 mM, pH 7.4), followed by centrifugation for 5 min at 13,000 rpm and sterile filtration (0.22 μm (Coring, N.Y.)).

[2] = Hydrodynamic diameter of PEG-b-PLA micelles by dynamic light scattering; type: physicochemical
Method: Proton nuclear magnetic resonance (^1H NMR) data were recorded on a Varian Unity-Inova two-channel 400 MHz NMR spectrometer (Palo Alto, Calif.) with regulated temperature at 25° C. Chemical shifts (δ) were reported in parts per million (ppm) relative to residual protonated solvent resonance at 7.26 ppm for CDCl3. Mass spectrometry data was obtained using the Waters LCT (ESI-TOF) in the Chemical Instrumentation Center in the Department of Chemistry, University of Wisconsin-Madison. Samples were sprayed from a 10 mM NH4OAc/CH3CN solution. Reverse-phase HPLC (RP-HPLC) analysis was carried out using a Shimadzu Prominence HPLC system (Shimadzu, Japan) equipped with an LC-20AT pump, a SIL-20AC HT autosampler, a CTO-20AC column oven, and a SPD-M20A diode array detector. Sample was separated by a Waters Symmetry Shield™ RP18 column (4.6 mm×250 mm, 5 μm, 100 Å). 10 μL of sample was injected at a flow rate of 0.8 mL/min, column temperature at 25° C., and UV detection wavelength at 227 nm. The separation of o(LA)n-PTX conversion products was done in gradient mode with organic phase containing 100% CH3CN as solvent A, and aqueous phase containing 100% milliQ water as solvent B. Gradient elution was employed as follows: 0 min, 50% solvent A and 50% solvent B; 35 min, 95% solvent A and 5% solvent B; and 40 min for equilibration. Hydrodynamic diameters of PEG-b-PLA micelles were measured by dynamic light scattering (DLS) using a Zetasizer Nano-ZS (Malvern Instruments Inc., UK) at 25° C. with a detection angle of […] and a He—Ne ion laser as the light source (4 mW, 633 nm). Prior to measurements, PEG-b-PLA micelle solutions were diluted with milliQ water or PBS (10 mM, pH 7.4) to afford the level of PEG-b-PLA at ˜0.1 mg/mL and 1 mL of each sample was placed into a disposable sizing cuvette (BRAND Polystyrene Cuvettes). The cumulant method was used to curve-fit the correlation function, and the z-average diameter and polydispersity index (PDI) of PEG-b-PLA micelles were calculated from the Stokes-Einstein equation and the slope of the correlation function, respectively. All measurements were performed in triplicate.

[3] = Physical stability of drug- or conjugate-loaded PEG-b-PLA micelles (precipitation); conditions: for Stability: PEG-b-PLA micelles; for time until SEL precipitated out of PEG-b-PLA micelles: micelles containing unconjugated SEL alone
Method: Instead, loading efficiency of PTX was low, ca. 21%, and drug loading for PEG-b-PLA micelles leveled off at 11.2% drug loading.
SEL drug loading for PEG-b-PLA micelles was 1% with a very low drug loading efficiency of 5%. […] In contrast, the PEG-b-PLA micelles containing unconjugated SEL were unstable and SEL precipitated out within about 5 minutes.

[4] = tested on: A549 NSCLC cell line; assay: IC50 values and combination index analysis of PTX, SEL and RAP alone and in combination; type: cell-based, human; conditions: alone or combination at molar ratio PTX:SEL 2:3, PTX:RAP 2:1, SEL:RAP 3:1, PTX:SEL:RAP 2:3:1
Method: The cells were seeded into a 96-well plate at a seeding density of 1,500 cells/100 μL/well and cultured in RPMI 1640 medium at 37° C. in 5% CO2 incubator for 24 h. […] Each was added into the wells to attain a final concentrations of 0.1, 1, 10, 100, and 1000 nM. The final level of DMSO in the medium was <0.1% at all drug levels. Cells cultured with diluted DMSO or PBS in medium were used as controls. Drug treated cells were placed in an incubator at 5% CO2 at 37° C. for 72 h. The medium in each well was aspirated, and 100 μL of 20% (v/v) CellTiter-Blue reagent in serum free RPMI medium was added, followed by incubation at 37° C. in 5% CO2 atmosphere for 1.5 h. Fluorescence intensity was measured by a SpectraMax M2 plate reader (Molecular Devices, CA) with excitation and emission at 560 and 590 nm, respectively. The half maximal inhibitory drug concentration (IC50) was determined by using GraphPad Prism version 5.00 for Windows (GraphPad Software, CA).
In vitro anticancer activity of PTX, SEL, and RAP alone and in combination.

[5] = In vitro release from PEG-b-PLA micelles (dialysis cassette); type: physicochemical
Method: Four dialysis cassettes were placed in 4 L PBS solution (10 mM, pH 7.4) on a Corning Hotplate Stirrer (Corning, N.Y.) at 37° C. […] At each time point, a sample of 100 μL was withdrawn, and the cassettes were replenished with 100 μL of fresh PBS solution (10 mM, pH 7.4). The external medium was replaced with 4 L of fresh buffer at 2, 4, 8, 12, 24 and 48 h to approximate sink conditions.

[6] = tested on: human A549 non-small lung cancer cells; assay: In vitro cytotoxicity, CellTiter-Blue Cell Viability Assay; type: cell-based; conditions: free form, 72 h
Text: All chemicals were purchased from Sigma-Aldrich (St. Louis, Mo.) and used as received. Analytical grade organic solvents and all other reagents were purchased from Fisher Scientific (Pittsburgh, Pa.). PTX was purchased from LC Laboratories (Woburn, Mass.). PEG-b-PLA was purchased from Advanced Polymer Materials Inc. (Montreal, Canada): Mn of PEG and PLA was 4,000 and 2,200 g/mol, respectively; PDI 1.05. A549 human lung adenocarcinoma cells were purchased from ATCC (Manassas, Va.) and grown in RPMI 1640 medium supplemented with 10% fetal bovine serum (FBS), 100 IU/mL penicillin, 100 μg/mL streptomycin, and 2 mML-glutamine in 5% CO2 incubator at 37° C.
Each was added into the wells to attain a final concentrations of 0.1, 1, 10, 100, and 1000 nM. The final level of DMSO in the medium was <0.1% at all drug levels. Cells cultured with diluted DMSO or PBS in medium were used as controls. […] The medium in each well was aspirated, and 100 μL of 20% (v/v) CellTiter-Blue reagent in serum free RPMI medium was added, followed by incubation at 37° C. in 5% CO2 atmosphere for 1.5 h. Fluorescence intensity was measured by a SpectraMax M2 plate reader (Molecular Devices, CA) with excitation and emission at 560 and 590 nm, respectively. The half maximal inhibitory drug concentration (IC50) was determined by using GraphPad Prism version 5.00 for Windows (GraphPad Software, CA).

[7] = tested on: A549 xenograft tumor model; assay: In vivo antitumor efficacy in A549 xenograft tumor model; parameters: species or system female athymic nude mice; conditions: PEG-b-PLA micelles, 20 mg/kg, weekly tail vein injection, 3 weekly injections and one week off x 3 cycles
Method: All animal experiments were conducted under the protocol approved by Institutional Animal Care and Use Committee in University of Wisconsin-Madison in accordance with institutional and NIH guidance for the Care and Use of Laboratory Animals. 6-8 week-old female athymic nude mice (20-25 g each) were acquired from laboratory animal resources at School of Medicine and Public Health, University of Wisconsin-Madison. Mice were housed in ventilated cages with free access to water and food and acclimated for 1 week prior tumor cell injection. A549 cells (2×10^6 cells in 100 μL of serum-free RPMI 1640 medium) were harvested from sub-confluent cultures after trypsinization and were injected subcutaneously into the right flank of each mouse. […] Drug conjugates were administered via tail vein for 3 weekly injections, followed by 1-week rest period, totaling 3 cycles over a 12 weeks period. Body weight and tumor volume were monitored over the course of study. Tumor volume was calculated using the formula: V=(a×b^2)/2, where V is tumor volume, a is tumor length, b is tumor width.

[8] = Table 1B, PEG-b-PLA micelles, drug to polymer ratio 1:1
[9] = Table 1B, PEG-b-PLA micelles, drug to polymer ratio 1:5
[10] = Table 1B, PEG-b-PLA micelles, drug to polymer ratio 1:10
[11] = Table 2, PTX, SEL and RAP co-loaded as 3-in-1 micelle, initial level 1, 1.5, 0.5 mg, molar ratio 2:6:1, 21 mg PEG4000-b-PLA2200
[12] = Table 1B, drug to polymer ratio 1:1
[13] = Table 1B, drug to polymer ratio 1:5
[14] = Table 1B, drug to polymer ratio 1:10
[15] = Table 1A, PEG-b-PLA micelles, drug to polymer ratio 1:10, initial level 1 mg, mean ± SD, n = 3
[16] = Table 1C, PEG-b-PLA micelles, drug to polymer ratio 1:5
[17] = Table 1C, drug to polymer ratio 1:5

SMILES: CO[C@H]1C[C@@H]2CC[C@@H](C)[C@@](O)(O2)C(=O)C(=O)N2CCCC[C@H]2C(=O)O[C@H]([C@H](C)C[C@@H]2CC[C@@H](O)[C@H](OC)C2)CC(=O)[C@H](C)/C=C(\C)[C@@H](O)[C@@H](OC)C(=O)[C@H](C)C[C@H](C)/C=C/C=C/C=C/1C [RAP, rapamycin]
- solubility ([1]; PEG-b-PLA micelles, aqueous with cosolvent or surfactant or cyclodextrin, Table 1B, PEG-b-PLA micelles, drug to polymer ratio 1:1, read-out: Apparent solubility): 500 µg/mL
- solubility ([1]; PEG-b-PLA micelles, aqueous with cosolvent or surfactant or cyclodextrin, Table 1B, PEG-b-PLA micelles, drug to polymer ratio 1:5, read-out: Apparent solubility): 900 µg/mL
- solubility ([1]; PEG-b-PLA micelles, aqueous with cosolvent or surfactant or cyclodextrin, Table 1B, PEG-b-PLA micelles, drug to polymer ratio 1:10, read-out: Apparent solubility): 1400 µg/mL
- Drug loading [1, 8]: 11.5%
- Drug loading efficiency [1, 8]: 23%
- Drug loading [1, 9]: 7.3%
- Drug loading efficiency [1, 9]: 44.0%
- Drug loading [1, 10]: 6.4%
- Drug loading efficiency [1, 10]: 70.1%
- Drug loading [1, 11]: 2.2%
- Loading efficiency [1, 11]: 100% and 104.6%
- Particle size [2, 12]: 59.5 ± 21.6 nm
- Particle size [2, 13]: 36.2 ± 0.4 nm
- Particle size [2, 14]: 37.7 ± 1.9 nm
- Stability [3, 12]: <24 h
- Stability [3, 13]: <24 h
- Stability [3, 14]: <24 h
- micelles released drug in ([3]; all PEG-b-PLA micelles containing unconjugated RAP): less than 24 hours
- IC50 [4]: 320.6 ± 2.3 nM

SMILES: CC(=O)O[C@H]1C(=O)[C@@]2(C)[C@H]([C@H](OC(=O)c3ccccc3)[C@]3(O)C[C@H](OC(=O)[C@H](O)[C@@H](NC(=O)c4ccccc4)c4ccccc4)C(C)=C1C3(C)C)[C@]1(OC(C)=O)CO[C@@H]1C[C@@H]2O [PTX, paclitaxel]
- solubility ([1]; PEG-b-PLA micelles in water, aqueous with cosolvent or surfactant or cyclodextrin, Table 1A, PEG-b-PLA micelles, drug to polymer ratio 1:10, initial level 1 mg, mean ± SD, n = 3, read-out: Apparent solubility): 900 µg/mL
- solubility ([1]; PEG-b-PLA micelles in water, aqueous with cosolvent or surfactant or cyclodextrin, Table 1A, PEG-b-PLA micelles, drug to polymer ratio 3:5, initial level 6 mg, mean ± SD, n = 3, read-out: Apparent solubility): 1200 ± 100 µg/mL
- Drug loading [1, 15]: 8.6% and 8.6 ± 1.1%
- Drug loading efficiency [1, 15]: 93.8 ± 12.8%
- Drug loading ([1]; Table 1A, PEG-b-PLA micelles, drug to polymer ratio 3:5, initial level 6 mg, mean ± SD, n = 3): 11.2% and 11.2 ± 1.1%
- Drug loading [1, 11]: 4.3%
- Loading efficiency [1, 11]: 100% and 104%
- solubility ([1]; water, PTX without PEG-b-PLA micelles, read-out: water solubility): ~10 µg/mL (≈ 11.7 µM)
- Particle size ([2]; Table 1A, drug to polymer ratio 1:10, initial level 1 mg, 10 mg PEG-b-PLA, mean ± SD, n = 3): 30.5 nm and 30.5 ± 0.3 nm
- Particle size ([2]; Table 1A, drug to polymer ratio 3:5, initial level 6 mg, 10 mg PEG-b-PLA, mean ± SD, n = 3): 37.0 ± 5.7 nm
- micelles precipitating in ([3]; PEG-b-PLA micelles at room temperature): less than 2 hours
- precipitation of PTX during in vitro release ([5]; 9% drug loading, particle size 30 nm, PEG-b-PLA micelles): < 4 h
- in vitro release from PEG-b-PLA micelles (in words) ([5]; PBS 10 mM, pH 7.4, 37° C., FIG. 4): rapidly released
- IC50 [6]: 2 nM
- tumor growth / tumor volume [7]: tumor growth inhibition during treatment over 71 days and delayed tumor growth
- IC50 [4]: 7.4 ± 1.2 nM

SMILES: Cn1cnc2c(F)c(Nc3ccc(Br)cc3Cl)c(C(=O)NOCCO)cc21 [SEL, selumetinib]
- drug loading, loaded in micelles with free paclitaxel and free rapamycin ([1]; 3-drug co-loading): greater than 6 wt %
- Drug loading [1, 16]: 1%
- Drug loading efficiency [1, 16]: 5% and 5.1%
- Drug loading [1, 11]: 6.3%
- Loading efficiency [1, 11]: 100% and 101.7%
- solubility ([1]; aqueous with cosolvent or surfactant or cyclodextrin, Table 1C, PEG-b-PLA micelles, drug to polymer ratio 1:5, read-out: Apparent solubility): 100 µg/mL
- drug loading, loaded alone in micelles ([1]; free selumetinib alone): about 1 wt %
- Particle size [2, 17]: 60.6 ± 0.6 nm
- Stability [3, 17]: <2 h
- time until SEL precipitated out of PEG-b-PLA micelles [3]: ≤ 5 min
- time until SEL precipitated out of PEG-b-PLA micelles ([3]; listed as selumetinib): about 5 minutes
- IC50 [4]: 1729 ± 1.6 nM
